Legend:
KRas G12D [1] = target: T1, KRas G12D (Homo sapiens, UniProt P01116, G12D); assay: KRas G12D Surface Plasmon Resonance (SPR) Binding Assay; settings: Biacore T200, biotinylated Avidin-tagged KRAS protein on SA chip, 20 C, 1:1 binding model
Experimental: This Example illustrates that exemplary compounds of the present invention bind to KRas G12D as measured by surface plasmon resonance (SPR). Briefly, 1 L of 1.05×HBS-Mg buffer (262.5 mM BioUltra Hepes, pH 7.5, 157.5 mM NaCl, 105 mM MgCl2, 0.525 mM TCEP, […] Brij-35) was prepared and filter sterilized using a 0.22 μm bottle top filter. Approximately 50 mL of 1.05×HBS-Mg buffer was removed and saved for future dilutions. A 50 mL aliquot of DMSO (Sigma Aldrich DMSO Lot. #SHBK2079) was added and continued to stir for 10 minutes, creating the final 1.0×HBS-Mg buffer (250 mM BioUltra Hepes pH 7.5, 150 mM NaCl, 100 mM MgCl2, 0.5 mM TCEP, 0.03% Brij-35). Biacore T200 instrument was primed using 1.0×HBS-Mg buffer before docking a GE Streptavidin (SA) chip and then primed two additional times prior to beginning the immobilization step. All immobilized protein mixtures were created using 3-5 mg/mL Biotinylated Avidin-tagged KRAS protein using the following immobilization settings: SA chip type, 1 flow cells per cycle, 720 second contact time, and 5 μL/min flow rate. Normalization of the detector was also performed during the immobilization step using the GE BiaNormalize solution. All compounds were diluted to 10 mM in 100% DMSO prior to being diluted 20× in 1.05× buffer. Another 10× dilution was created using 1.0× buffer prior to performing a series of 3× dilutions to create a compound concentration curve using the following assay settings: 20 C analysis temperature, General Settings=10 Hz data collection rate and multi-detection; Assay Steps=all set to LMW kinetics; Cycle Types=LMW kinetics (60s contact time, 120s dissociation time, 100 μL/min flow rate, extra wash after injection with 50% DMSO, flow path 1,2,3,4); Flow path detection=2-1, 4-3). Data evaluation was performed using the Biacore T200 Evaluation software and data fit to 1:1 binding model.
Target sequence in this assay (P01116 1-188 isoform P01116-2 G12D): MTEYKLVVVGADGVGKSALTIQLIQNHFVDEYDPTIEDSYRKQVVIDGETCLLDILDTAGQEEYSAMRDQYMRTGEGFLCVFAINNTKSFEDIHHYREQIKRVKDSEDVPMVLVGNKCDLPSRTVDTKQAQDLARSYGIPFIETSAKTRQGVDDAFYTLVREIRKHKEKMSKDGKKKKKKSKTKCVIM

KRas G12D [2] = target: T1, KRas G12D; assay: KRas G12D Binding Assay (TR-FRET displacement of labeled tracer); design: corresponding to amino acids 1:169, produced at Array BioPharma; biotin (protein is biotinylated); settings: TR-FRET displacement of Cy5 labelled tracer, biotinylated GDP-loaded KRAS G12D (aa 1:169), 60 minute incubation at 22° C.
Procedure, shortened: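 Biotinylated GDP-loaded human KRAS G12D (aa 1–169) incubated with Cy5 tracer, Eu-streptavidin and compound (2% DMSO final) in 50 mM HEPES pH 7.5, 5 mM MgCl2, 0.005% Tween-20, 1 mM DTT, 60 min at 22 °C. TR-FRET ratio converted to percent of control; IC50 at 50 POC from 4-parameter logistic fit.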
Target sequence in this assay (P01116 1-169 isoform P01116-2 G12D): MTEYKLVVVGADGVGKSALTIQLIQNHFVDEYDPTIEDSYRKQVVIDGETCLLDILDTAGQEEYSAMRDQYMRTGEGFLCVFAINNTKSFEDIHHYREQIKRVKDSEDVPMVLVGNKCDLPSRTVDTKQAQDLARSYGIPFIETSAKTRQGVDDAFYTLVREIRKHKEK

[3] = test system: KRas G12D-mediated Phosphorylation of ERK; assay: Inhibition of KRas G12D-mediated Phosphorylation of ERK in AGS cells; type: cell-based; settings: Homo sapiens; AGS cells expressing G12D, 3 hours, phospho-ERK normalized to GAPDH
Experimental: AGS cells (ATCC CRL-1739) expressing G12D were grown in DMEM medium supplemented with 10% fetal bovine serum, 10 mM HEPES, and Penicillin/Streptomycin. Cells were plated in tissue culture treated 96 well plates at a density of 40,000 cells/well and allowed to attach for 12-14 hours. Diluted compounds were then added in a final concentration of 0.5% DMSO. After 3 hours, the medium was removed, 150 μl of 4.0% formaldehyde was added and the plates incubated at room temperature for 20 minutes. The plates were washed with PBS, and permeabilized with 150 μL of ice cold 100% methanol for 10 minutes. Non-specific antibody binding to the plates was blocked using 100 μL Licor blocking buffer (Li-Cor Biotechnology, Lincoln NE) for 1 hour at room temperature.
The amount of phospho-ERK was determined using an antibody specific for the phosphorylated form of ERK and compared to the amount of GAPDH. Primary antibodies used for the detection were added as follows: Phospho-ERK(Cell Signaling cs-9101) diluted 1:500 and GAPDH(Millipore MAB374) diluted 1:5000 in Licor block+0.05% Tween 20. The plates were incubated for 2 hours at room temperature. The plates were washed with PBS+0.05% Tween 20.
Secondary antibodies used to visualize primary antibodies were added as follows: Anti-rabbit-680 diluted 1:1000 and Anti-mouse-800 diluted 1:1000 both in Licor block+0.05% Tween20, and were incubated for 1 hour at room temperature. The plates were washed with PBS+0.05% Tween 20. A 100 μl aliquot of PBS was added to each well and the plates were read on a Li-Cor Odyssey CLX plate reader.
The phospho-ERK(Thr202/Tyr204 signal was normalized to the GAPDH signal for each well and percent of DMSO control values were calculated. IC50 values were generated using a 4-parameter fit of the dose response curve.

| Kd (KRas G12D [1]) [nM] | Structure (SMILES) | IC50 (KRas G12D [2]) [nM] | IC50 [3] [nM] |
| --- | --- | --- | --- |
| 2100 | C[C@H]1CC2CN(c3nc(OC[C@@H]4CCCN4C)nc4c3CCN(c3cccc5cccc(Cl)c35)C4)C[C@H]1N2 (single isomer, unassigned) [Example 88] | 1090 | – |
| 27100 | CN1CCC[C@H]1COc1nc2c(c(N3C[C@H]4C/C(=C\C#N)[C@@H](C3)N4)n1)CCN(c1cccc3cccc(Cl)c13)C2 (single isomer, unassigned) [Example 89] | > 10000 | – |
| 938 | CN1CCC[C@H]1COc1nc2c(c(N3C[C@H]4C/C(=C/C#N)[C@@H](C3)N4)n1)CCN(c1cccc3cccc(Cl)c13)C2 (single isomer, unassigned) [Example 90] | 1460 | – |
| 6370 | Cc1ccc2[nH]ncc2c1N1CCc2c(nc(OC[C@@H]3CCCN3C)nc2N2C[C@H]3CC[C@@H](C2)N3)C1 [Example 3, 4-((1R,5S)-3,8-diazabicyclo[3.2.1]octan-3-yl)-7-(5-methyl-1H-indazol-4-yl)-2-(((S)-1-methylpyrrolidin-2-yl)methoxy)-5,6,7,8-tetrahydropyrido[3,4-d]pyrimidine] | 1320 | – |
| 1510 | CN1CCC[C@H]1COc1nc2c(c(N3C[C@H]4CC[C@@H](C3)N4)n1)CCN(c1cccc3c1C(CC#N)CCC3)C2 (stereo partly drawn) [Example 85, 2-(8-(4-((1R,5S)-3,8-diazabicyclo[3.2.1]octan-3-yl)-2-(((S)-1-methylpyrrolidin-2-yl)methoxy)-5,8-dihydropyrido[3,4-d]pyrimidin-7(6H)-yl)-1,2,3,4-tetrahydronaphthalen-1-yl)acetonitrile] | – | – |
| – | CCc1cccc2cccc(N3CCc4c(nc(OCC56CCCN5C(COC(=O)N5CC[C@@H](OC)C5)CC6)nc4N4C[C@H]5CC[C@@H](C4)N5)C3)c12 (stereo partly drawn) [Example 106, (7a-(((4-((1R,5S)-3,8-diazabicyclo[3.2.1]octan-3-yl)-7-(8-ethylnaphthalen-1-yl)-5,6,7,8-tetrahydropyrido[3,4-d]pyrimidin-2-yl)oxy)methyl)hexahydro-1H-pyrrolizin-3-yl)methyl (3R)-3-methoxypyrrolidine-1-carboxylate] | 7.2 | 5110 |
| – | CCc1cccc2cccc(N3CCc4c(nc(OC[C@]56CCCN5[C@@H](COC(=O)N(C)CCO)CC6)nc4N4C[C@H]5CC[C@@H](C4)N5)C3)c12 [Example 107, ((3R,7aR)-7a-(((4-((1R,5S)-3,8-diazabicyclo[3.2.1]octan-3-yl)-7-(8-ethylnaphthalen-1-yl)-5,6,7,8-tetrahydropyrido[3,4-d]pyrimidin-2-yl)oxy)methyl)hexahydro-1H-pyrrolizin-3-yl)methyl (2-hydroxyethyl)(methyl)carbamate] | 2 | 408 |
| – | CCc1cccc2cccc(N3CCc4c(nc(OC[C@]56CCCN5[C@@H](COC(=O)NCCOC)CC6)nc4N4C[C@H]5CC[C@@H](C4)N5)C3)c12 [Example 108, ((3R,7aR)-7a-(((4-((1R,5S)-3,8-diazabicyclo[3.2.1]octan-3-yl)-7-(8-ethylnaphthalen-1-yl)-5,6,7,8-tetrahydropyrido[3,4-d]pyrimidin-2-yl)oxy)methyl)hexahydro-1H-pyrrolizin-3-yl)methyl (2-methoxyethyl)carbamate] | 2 | 585 |
| – | Brc1ccc(N2CCc3c(nc(OCC45CCCN4CCC5)nc3N3C[C@H]4CC[C@@H](C3)N4)C2)c2ccccc12 [Example 112, 4-((1R,5S)-3,8-diazabicyclo[3.2.1]octan-3-yl)-7-(4-bromonaphthalen-1-yl)-2-((hexahydro-1H-pyrrolizin-7a-yl)methoxy)-5,6,7,8-tetrahydropyrido[3,4-d]pyrimidine] | 5460 | > 16700 |
| – | c1ccc2c(N3CCc4c(nc(OCC56CCCN5CCC6)nc4N4C[C@H]5CC[C@@H](C4)N5)C3)cccc2c1 [Example 114, 4-((1R,5S)-3,8-diazabicyclo[3.2.1]octan-3-yl)-2-((hexahydro-1H-pyrrolizin-7a-yl)methoxy)-7-(naphthalen-1-yl)-5,6,7,8-tetrahydropyrido[3,4-d]pyrimidine] | 34.2 | > 16700 |
| – | Oc1cc(N2CCc3c(nc(OCC45CCCN4CCC5)nc3N3C[C@H]4CC[C@@H](C3)N4)C2)c2c(Cl)cccc2c1 [Example 115, 4-(4-((1R,5S)-3,8-diazabicyclo[3.2.1]octan-3-yl)-2-((hexahydro-1H-pyrrolizin-7a-yl)methoxy)-5,6-dihydropyrido[3,4-d]pyrimidin-7(8H)-yl)-5-chloronaphthalen-2-ol] | 0.6 | 118 |
| – | Oc1cc(N2CCc3c(nc(OCC45CCCN4CCC5)nc3N3C[C@H]4CC[C@@H](C3)N4)C2)c2c(Cl)c(F)ccc2c1 [Example 116, 4-(4-((1R,5S)-3,8-diazabicyclo[3.2.1]octan-3-yl)-2-((hexahydro-1H-pyrrolizin-7a-yl)methoxy)-5,6-dihydropyrido[3,4-d]pyrimidin-7(8H)-yl)-5-chloro-6-fluoronaphthalen-2-ol] | 0.5 | 46 |
| – | Oc1cc(N2CCc3c(nc(OC[C@@]45CCCN4C[C@H](F)C5)nc3N3C[C@H]4CC[C@@H](C3)N4)C2)c2c(Cl)cccc2c1 [Example 117, 4-(4-((1R,5S)-3,8-diazabicyclo[3.2.1]octan-3-yl)-2-(((2R,7aS)-2-fluorohexahydro-1H-pyrrolizin-7a-yl)methoxy)-5,6-dihydropyrido[3,4-d]pyrimidin-7(8H)-yl)-5-chloronaphthalen-2-ol] | 0.7 | 76 |
| – | CCc1c(F)ccc2cc(O)cc(N3CCc4c(nc(OCC56CCCN5CCC6)nc4N4C[C@H]5CC[C@@H](C4)N5)C3)c12 [Example 119, 4-(4-((1R,5S)-3,8-diazabicyclo[3.2.1]octan-3-yl)-2-((hexahydro-1H-pyrrolizin-7a-yl)methoxy)-5,6-dihydropyrido[3,4-d]pyrimidin-7(8H)-yl)-5-ethyl-6-fluoronaphthalen-2-ol] | 1.6 | 7 |
| 1400 | CN1CCC[C@H]1COc1nc2c(c(N3C[C@@H]4C[C@H](CO)[C@H](C3)N4)n1)CCN(c1cc(O)cc3ccccc13)C2 [Example 120, 4-(4-((1S,5R,6S)-6-(hydroxymethyl)-3,8-diazabicyclo[3.2.1]octan-3-yl)-2-(((S)-1-methylpyrrolidin-2-yl)methoxy)-5,8-dihydropyrido[3,4-d]pyrimidin-7(6H)-yl)naphthalen-2-ol] | – | – |
| – | CCc1cccc2cccc(N3CCc4c(nc(OC[C@@]56CCCN5C[C@H](F)C6)nc4[C@H]4C[C@H]5CC[C@@H](C4)N5)C3)c12 [Example 121, 4-((1R,3r,5S)-8-azabicyclo[3.2.1]octan-3-yl)-7-(8-ethylnaphthalen-1-yl)-2-(((2R,7aS)-2-fluorotetrahydro-1H-pyrrolizin-7a(5H)-yl)methoxy)-5,6,7,8-tetrahydropyrido[3,4-d]pyrimidine] | 8.7 | 2360 |

Source: patent US12686692B2, “KRas G12D inhibitors” (Mirati Therapeutics, Inc., priority 2020, dated 2026)
